Test [1] concerns the target T1, MC4R (Homo sapiens, UniProt P32245). The test can be described thus: Binding affinity (125I-NDP-α-MSH displacement, membranes of HEK-293 cells expressing MC4R). The arrangement: expressed in transfected cells; host or cells: HEK-293 cells, membrane preparation. Conditions: 0.02 nM 125I-NDP-α-MSH, 37° C. for two hours, pH 7.0. From the text: Five subtypes of melanocortin receptor (MCR) in vivo are known, and it is known that MC4R, which is Subtype 4, is involved in energy metabolism and weight control. Since other MCR subtypes are involved in the regulation of various functions in vivo such as skin pigmentation, energy homeostasis, and exocrine functions, securing selectivity for MC4R of MC4R agonist compounds is very important in preventing possible side effects in the future. Therefore, the receptor binding abilities of MC4R agonists for each MCR subtype were measured.
After the CHO-K 1 cell line expressing human recombinant MC1R and the HEK-293 cell lines expressing MC3R, MC4R and MC5R were established, membranes were collected from each cell line. In a 96-well cell culture plate, 3 μg MC1R membrane and 0.04 nM ^125I-NDP-α-MSH per well were reacted at 37° C. for two hours. 3 μg MC3R and MC5R membrane and 0.035 nM ^125I-NDP-α-MSH were reacted at 37° C. for one hour, and […] MC4R membrane and 0.02 nM ^125I-NDP-α-MSH were reacted at 37° C. for two hours. At this time, 25 mM HEPES-KOH adsorption buffer (pH 7.0) containing MCR agonist diluted at each step concentration was added to each well and reacted. The reacted solution was transferred to a filter and washed with an adsorption buffer, and then radioactivity was measured. The value excluding the non-specific binding amount in the presence of 1 μM (MC1R) and 3 μM (MC3R, MC4R, MC5R) of NDP-α-MSH from each total binding amount was used as specific binding amounts of ^125I-NDP-α-MSH. The degree to which the ^125I-NDP-a-MSH specific binding was inhibited by the agonist diluted at each step concentration was measured. IC50 was expressed as the concentration of each agonist that inhibited specific binding of 50% of ^125I-NDP-α-MSH.
Tables 4-1 and 4-2 show the results of measuring the binding of melanocortin receptors of the compounds obtained by the above experiment in Ki (nM) units.
Target sequence in this assay (P32245 whole entry): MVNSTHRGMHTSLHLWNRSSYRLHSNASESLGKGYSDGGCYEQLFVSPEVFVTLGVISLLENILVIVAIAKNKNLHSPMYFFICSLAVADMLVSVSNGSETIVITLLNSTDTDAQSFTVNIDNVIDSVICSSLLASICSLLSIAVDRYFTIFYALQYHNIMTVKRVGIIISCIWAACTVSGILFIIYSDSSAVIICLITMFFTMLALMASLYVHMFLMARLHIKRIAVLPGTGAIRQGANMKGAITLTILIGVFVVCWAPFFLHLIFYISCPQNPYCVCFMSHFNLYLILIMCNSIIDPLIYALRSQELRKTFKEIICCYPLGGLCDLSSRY

Test [2] concerns the target T1, MC4R. The test is described as follows: cAMP assay (cAMP Hunter Gs-coupled CHO-K1 cell line). It counts as cell-based. Also on record: expressed in transfected cells; host or cells: CHO-K1 (cAMP Hunter Gs-coupled cell line). Conditions: CHO-K1 cells overexpressing MC4R, 37° C. for 30 minutes. From the text:
The melanocortin receptor is a type of G-protein coupled receptor (GPCR), and the main role of G-protein is to activate secondary transducers to regulate cellular responses to many physiological stimuli through signal transduction. MC4R is a Gs-coupled receptor, and it is known that if MC4R interacts with an agonist, adenylate cyclase (AC) is activated to increase the concentration of cyclic AMP (cAMP), which is one of the secondary transducers in cells. Therefore, it is possible to evaluate the activity of melanocortin receptors by measuring the generation of cAMP signals.
After cAMP Hunter Gs-coupled cell lines (CHO-K1 cell line) in which each of MC1R, MC3R, MC4R and MC5R was overexpressed were established so that the increase in the cAMP level in cells due to agonist reaction was measurable, the cells were inoculated into each well of a white cell culture plate and incubated for 24 hours in a 37° C. incubator in the presence of 5% CO2. After the incubation, the medium was removed, and 15 μl of a 2:1 HBBS/10 mM HEPES:cAMP XS+Ab reagent was added. After 5 μl of the sample diluted 4 times with buffer was added, the vehicle concentration was set to 1%, and the MC4R agonist compound diluted at each step concentration was added, followed by reaction at 37° C. for 30 minutes. The activity (%) of each agonist compound is expressed as 100% ×(average RLU value of sample'average RLU value of vehicle control)/(average RLU value of max control−average RLU value of vehicle control), and the value was analyzed by CBIS data analysis suite (ChemInnovation, CA).
Background: Cyclic AMP is a second messenger, typically raised through Gs and lowered through Gi signalling.
Target sequence in this assay (P32245 whole entry, species assumed): as the sequence (P32245 whole entry) above

Test [3] deals with T1, MC4R. The test is described as follows: β-arrestin assay (Pathhunter eXpress β-arrestin U2OS cell line). It is filed as cell-based. The arrangement: expressed in transfected cells; host or cells: U2OS (Pathhunter eXpress β-arrestin cell line). The following applies: U2OS cells, PK-tagged MC4R and EA-tagged β-arrestin, 37° C. for 90 minutes. From the text: The melanocortin receptor is a type of G-protein coupled receptor (GPCR) and regulates various physiological responses by transducing signals from many neurotransmitters. When GPCR is phosphorylated, β-arrestin is bound to the phosphorylated part of the receptor and plays an important role in activating various signaling pathways in cells through interaction with other proteins. It is known that, when the melanocortin receptor interacts with an agonist, β-arrestin is mobilized and is involved in the β-arrestin-mediated signaling pathway. Therefore, the activity of the melanocortin receptor can be evaluated through the measurement of β-arrestin.
A Pathhunter eXpress β-arrestin cell line (U2OS cell line) in which Prolink (PK)-tagged MC1R, MC3R, MC4R, MC5R and Enzyme acceptor (EA)-tagged β-arrestin were expressed together was established. When the MCR-PK portion of this cell line is activated, β-arrestin-EA is mobilized, and enzyme acceptor (EA) and Prolink (PK), which are the β-galactosidase enzyme fragments, interact. The activated enzyme hydrolyzes the substrate by β-galactosidase activity to produce a chemiluminescent signal, so that the activity can be measured. After the Pathhunter eXpress β-arrestin cell line (U2OS cell line) was incubated, the cells were inoculated into each well of the cell culture plate and incubated for 48 hours in a 37° C. incubator in the presence of 5% CO2. After the incubation, 5 μl of the sample diluted 5 times with buffer was added, the vehicle concentration was set to 1%, and the MC4R agonist compound diluted at each step concentration was added, followed by reaction at 37° C. for 90 minutes. The activity (%) of each agonist compound is expressed as 100% ×(average RLU value of sample−average RLU value of vehicle control)/(average maximum value of control ligand−average RLU value of vehicle control), and the value was analyzed by CBIS data analysis suite (ChemInnovation, CA).
Target sequence in this assay (P32245 whole entry, species assumed): as the sequence (P32245 whole entry) above
Target sequence in this assay (P32121 whole entry partner, species assumed): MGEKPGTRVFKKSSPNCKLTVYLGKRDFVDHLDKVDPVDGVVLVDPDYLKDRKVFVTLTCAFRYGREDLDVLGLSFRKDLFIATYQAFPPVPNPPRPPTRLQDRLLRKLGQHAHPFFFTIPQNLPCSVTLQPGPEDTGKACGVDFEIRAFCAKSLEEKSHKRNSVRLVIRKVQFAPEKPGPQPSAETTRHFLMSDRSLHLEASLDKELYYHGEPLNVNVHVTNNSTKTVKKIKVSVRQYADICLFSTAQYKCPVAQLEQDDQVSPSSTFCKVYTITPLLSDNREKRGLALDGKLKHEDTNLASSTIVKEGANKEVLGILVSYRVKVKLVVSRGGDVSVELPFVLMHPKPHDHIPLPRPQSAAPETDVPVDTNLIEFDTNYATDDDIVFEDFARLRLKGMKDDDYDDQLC

Where a name gives a salt, the structure may show the parent alone.

The Ki is a dissociation constant, usually derived from enzyme kinetics or from competition with a known ligand. In general, EC50 refers to the concentration giving half of the maximal effect. Consider `CC(C)(C)C(=O)N([C@H]1C[C@@H](C(=O)N2CCOCC2)N(C(=O)[C@@H]2CN(C(C)(C)C)C[C@H]2c2ccc(F)cc2F)C1)[C@H]1CC[C@@H](C)CC1` [Example 1, N-((3S,5S)-1-((3S,4R)-1-(tert-butyl)-4-(2,4-difluorophenyl)pyrrolidine-3-carbonyl)-5-(morpholine-4-carbonyl)pyrrolidin-3-yl)-N-((1s,4R)-4-methylcyclohexyl)pivalamide hydrochloride], for which the inhibitory constant (Ki) on MC4R [1] (Table 4-1) was found to be 74 nM. For the same compound, the results for the EC50 at MC4R [2] and at MC4R [3] were 58.9 nM and 8.02 nM, respectively.

Consider `CC(C)(C)C(=O)N([C@H]1C[C@@H](C(=O)N2CCOCC2)N(C(=O)[C@@H]2CN(C(C)(C)C)C[C@H]2c2ccc(Cl)cc2F)C1)[C@H]1CC[C@@H](C)CC1` [Example 4, N-((3S,5S)-1-((3S,4R)-1-(tert-butyl)-4-(4-chloro-2-fluorophenyl)pyrrolidine-3-carbonyl)-5-(morpholine-4-carbonyl)pyrrolidin-3-yl)-N-((1s,4R)-4-methylcyclohexyl)pivalamide hydrochloride], for which, on MC4R [1] (Table 4-1), the Ki is 30 nM. Further, the EC50 on MC4R [2] was determined as 26.2 nM; at MC4R [3] it was 4.2 nM.

Compound `CC(C)C(=O)N([C@H]1C[C@@H](C(=O)N2CCOCC2)N(C(=O)[C@@H]2CN(C(C)(C)C)C[C@H]2c2ccc(F)cc2F)C1)[C@H]1CC[C@@H](C)CC1` [Example 2, N-((3S,5S)-1-((3S,4R)-1-(tert-butyl)-4-(2,4-difluorophenyl)pyrrolidine-3-carbonyl)-5-(morpholine-4-carbonyl)pyrrolidin-3-yl)-N-((1s,4R)-4-methylcyclohexyl)isobutyramide hydrochloride] registered a Ki on MC4R [1] (Table 4-1) of 240 nM. For the same compound, the half-maximal effective concentration (EC50) came to 59.6 nM on MC4R [2] and 15 nM on MC4R [3].

On MC4R [1] (Table 4-2), `CC(C)C(=O)N([C@H]1C[C@@H](C(=O)N2CCOCC2)N(C(=O)[C@@H]2CN(C(C)(C)C)C[C@H]2c2ccc(Cl)cc2F)C1)[C@H]1CC[C@@H](C)CC1` [Example 3, N-((3S,5S)-1-((3S,4R)-1-(tert-butyl)-4-(4-chloro-2-fluorophenyl)pyrrolidine-3-carbonyl)-5-(morpholine-4-carbonyl)pyrrolidin-3-yl)-N-((1s,4R)-4-methylcyclohexyl)isobutyramide hydrochloride] registered a Ki of 86 nM. Besides, the 50% effective concentration (EC50) came to 49.6 nM at MC4R [2] and 4.5 nM at MC4R [3].

`CC1(C)CCC(N(C(=O)C(C)(C)C)[C@H]2C[C@@H](C(=O)N3CCOCC3)N(C(=O)[C@@H]3CN(C(C)(C)C)C[C@H]3c3ccc(Cl)cc3)C2)CC1` [Example 6, N-((3S,5S)-1-((3S,4R)-1-(tert-butyl)-4-(4-chlorophenyl)pyrrolidine-3-carbonyl)-5-(morpholine-4-carbonyl)pyrrolidin-3-yl)-N-(4,4-dimethylcyclohexyl)pivalamide hydrochloride] came in with an inhibition constant Ki on MC4R [1] (Table 4-2) of 32 nM. The half-maximal effective concentration (EC50) turned out to be 51.4 nM on MC4R [2] and 13 nM on MC4R [3].

Source of the values: patent US20240190856A1, “MELANOCORTIN-4 RECEPTOR AGONIST” (LG CHEM, LTD., priority 2021, published 2024).
